Laboratory results published in ChEMBL document CHEMBL1201862, “PubChem BioAssay data set” (2004).
Values joined by “and” are separate entries in the source; they are usually repeats but may differ in a detail not shown here. Equal entries are not always repeated.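 In this assay, cells in 96-well plates receive the compound at five concentrations for 48 hours. Endpoints are linearly interpolated between the surrounding concentrations. The concentration for 50% growth inhibition is given as GI50.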 Active and inactive are the calls of the source. Cut-off read from the data, not from the text of the source: active = GI50 up to about 1.1 µM and inactive = higher.

Columns and labels:
Experiment in all cases: NCI anticancer screen, dose series, 48 h
[1] = system: HT-29
[2] = system: OVCAR-4
[3] = system: HCT-116
[4] = system: UACC-62
[5] = system: NCI-H226
[6] = system: SNB-75
[7] = system: M14
[8] = system: SF-539
[9] = system: IGROV-1
[10] = system: NCI-H522
[11] = system: TK-10
[12] = system: KM12
[13] = system: SF-295
[14] = system: SK-MEL-2
[15] = system: COLO 205
[16] = system: PC-3
[17] = system: NCI-H23
[18] = system: SN12C
[19] = system: SF-268
[20] = system: NCI-H460

Row | Compound | GI50 [1] | GI50 [2] | GI50 [3] | GI50 [4] | GI50 [5] | GI50 [6] | GI50 [7] | GI50 [8] | GI50 [9] | GI50 [10] | GI50 [11] | GI50 [12] | GI50 [13] | GI50 [14] | GI50 [15] | GI50 [16] | GI50 [17] | GI50 [18] | GI50 [19] | GI50 [20]
1 | COc1ccc(Nc2c[nH]c(=O)[nH]c2=O)cc1 | > 100 µM (inactive) | > 100 µM (inactive) | > 100 µM (inactive) | > 100 µM (inactive) | > 100 µM (inactive) | > 100 µM (inactive) | > 100 µM (inactive) | > 100 µM (inactive) | > 100 µM (inactive) | > 100 µM (inactive) | > 100 µM (inactive) | > 100 µM (inactive) | > 100 µM (inactive) | > 100 µM (inactive) | > 100 µM (inactive) | > 100 µM (inactive) | > 100 µM (inactive) | > 100 µM (inactive) | – | –
2 | Nc1ccc(-c2nc3ccccc3s2)cc1C#Cc1ccccc1 | 19.6 µM (inactive) | 20.6 µM (inactive) | 14.4 µM (inactive) | 17.9 µM (inactive) | 20.1 µM (inactive) | 25.3 µM (inactive) | 16.3 µM (inactive) | 18.2 µM (inactive) | 10.7 µM (inactive) | 18.9 µM (inactive) | 13.9 µM (inactive) | 16.7 µM (inactive) | 21.2 µM (inactive) | – | 16.3 µM (inactive) | 18.5 µM (inactive) | 20.9 µM (inactive) | 18.8 µM (inactive) | 21.1 µM (inactive) | 17 µM (inactive)
3 | Cc1nc(N)sc1/N=N/c1cc(Cl)c([N+](=O)[O-])cc1Cl | 12.4 µM (inactive) | – | 33.6 µM (inactive) | 16.4 µM (inactive) | 14 µM (inactive) | < 0.01 µM (active) | 50.4 µM (inactive) | 17.3 µM (inactive) | 20.1 µM (inactive) | 15.5 µM (inactive) | 21.4 µM (inactive) | 18.1 µM (inactive) | 23.9 µM (inactive) | 22.8 µM (inactive) | 31 µM (inactive) | 18.7 µM (inactive) | – | 17.6 µM (inactive) | 29.9 µM (inactive) | 30 µM (inactive)
4 | N#C/C(C(=O)Nc1ccccc1)=C(/N)N1CCCC1 | 88.1 µM (inactive) | > 100 µM (inactive) | > 100 µM (inactive) | > 100 µM (inactive) | > 100 µM (inactive) | – | > 100 µM (inactive) | > 100 µM (inactive) | > 100 µM (inactive) | > 100 µM (inactive) | > 100 µM (inactive) | > 100 µM (inactive) | > 100 µM (inactive) | > 100 µM (inactive) | > 100 µM (inactive) | > 100 µM (inactive) | > 100 µM (inactive) | > 100 µM (inactive) | > 100 µM (inactive) | > 100 µM (inactive)
5 | COCOc1c(C(OCOC)c2cnc(Sc3ccccc3)n2C)ccc(OC)c1OC (stereo not drawn) | > 100 µM (inactive) | > 100 µM (inactive) | > 100 µM (inactive) | > 100 µM (inactive) | 76.7 µM (inactive) | 35.3 µM (inactive) | – | > 100 µM (inactive) | > 100 µM (inactive) | 90.8 µM (inactive) | > 100 µM (inactive) | > 100 µM (inactive) | > 100 µM (inactive) | > 100 µM (inactive) | – | > 100 µM (inactive) | > 100 µM (inactive) | > 100 µM (inactive) | > 100 µM (inactive) | > 100 µM (inactive)
6 | CC1C2CC(CC2=O)C1(C)C (stereo not drawn) | > 100 µM (inactive) | > 100 µM (inactive) | > 100 µM (inactive) | > 100 µM (inactive) | > 100 µM (inactive) | > 100 µM (inactive) | > 100 µM (inactive) | > 100 µM (inactive) | > 100 µM (inactive) | > 100 µM (inactive) | > 100 µM (inactive) | > 100 µM (inactive) | > 100 µM (inactive) | – | > 100 µM (inactive) | > 100 µM (inactive) | > 100 µM (inactive) | > 100 µM (inactive) | > 100 µM (inactive) | > 100 µM (inactive)
7 | N#Cc1c(-c2ccccc2)c(C#N)c(=S)n(C2OC(CO)C(O)C(O)C2O)c1N (stereo not drawn) | > 100 µM (inactive) | > 100 µM (inactive) | > 100 µM (inactive) | > 100 µM (inactive) | > 100 µM (inactive) | 42.2 µM (inactive) and 64.9 µM (inactive) | > 100 µM (inactive) | > 100 µM (inactive) | – | 33.4 µM (inactive) and 51.5 µM (inactive) | – | > 100 µM (inactive) | > 100 µM (inactive) | > 100 µM (inactive) | – | > 100 µM (inactive) | > 100 µM (inactive) | > 100 µM (inactive) | > 100 µM (inactive) | 94 µM (inactive)
